In PMC11537802, “The Neuroprotection of 1,2,4‐Triazole Derivative by Inhibiting Inflammation and Protecting BBB Integrity in Acute Ischemic Stroke” (CNS Neuroscience & Therapeutics, 2024):

How the values were obtained:
MMP‐9 = experiment: immunofluorescence of MMP-9 in brain of MCAO rats; type: in vivo, Sprague–Dawley rats; details: high-dose SYS18 (15 mg/kg)
Procedure: (§1) Rats were randomly divided into five groups: Sham group (n = 24), rats received sham operation; MCAO model group (n = 30); SYS18 low‐dose group (7.5 mg/kg, n = 30); SYS18 high‐dose group (15 mg/kg, n = 30); and Positive control group rats were intraperitoneally injected with edaravone (15 mg/kg, n = 30). The tested compound was dissolved in 20% polyoxyethylene castor oil and was administered 0.5 h before operation and 6, 12, 24, and 36 h after reperfusion. The measurements were carried out 48 h after the operation. Ten animals in each group were used to measure brain water content, and 10 animals in each group were used to detect Evans blue content in brain tissue. Ten animals in each group were used for determination of biochemical indicators and pathological observations and WB experiments.
(§2) Immunofluorescence testing selects the same area as HE staining to observe and analyze the fluorescence level in the field of view. After deparaffinization of the paraffin sections to water, the tissue sections were subjected to antigen retrieval in a microwave oven in a retrieval box filled with citric acid antigen retrieval buffer (pH 6.0), and the sections were incubated overnight at 4°C with rabbit monoclonal anti‐MMP‐9 (1:100), rabbit polyclonal anti‐claudin‐5 (1:200). […]

[1] = blood–brain distribution and PK of SYS18 in rats after intraperitoneal injection; details: for Kp: brain/plasma
Procedure: The blood samples were anticoagulated with EDTA and stored at 4°C, then centrifuged at 4°C at 4000 r/min for 10 min. The plasma concentrations were detected simultaneously (plasma stored at −80°C refrigerator). The whole brain was stored at −80°C for later detection and then uniformly prepared into brain tissue homogenate to detect drug concentration. Use Excel to analyze the drug concentration—time data pharmacokinetic parameters through atrioventricular method.

syndecan‐1 = experiment: glycocalyx component syndecan-1 in MCAO rats (ELISA); type: in vivo, Sprague–Dawley rats; details: SYS18 high dose 15 mg/kg, 48 h, p < 0.05
Procedure: as §1
(§3) Blood and brain sample were collected at 48 h after MCAO. After centrifugation at 4°C × 12,000 g for 10 min, the clear supernatant was stored at −80°C. Their concentrations of syndecan‐1, HS, and heparanase (HPSE) were determined using an ELISA kit. […] Substrates A and B were added, and the substrate was catalyzed by HRP to produce a product, which eventually converted under the action of a stop solution, and the absorbance (OD value) was measured at a wavelength of 450 nm on a microplate reader.

TNF‐α = experiment: serum TNF-α in MCAO rats (ELISA); type: in vivo, Sprague–Dawley rats; details: 15 mg/kg, 48 h, p < 0.05
Procedure: as §1
(§4) Blood sample was collected at 48 h after MCAO. After centrifugation at 4°C × 12,000 g for 10 min, the clear supernatant was stored at −80°C. The components of SOD, MDA, TNF‐α, and IL‐1β in the blood samples were measured according to the instructions of the assay kits.

HS = experiment: glycocalyx component HS in serum of MCAO rats (ELISA); type: in vivo, Sprague–Dawley rats; details: SYS18 high dose 15 mg/kg, 48 h, p < 0.05
Procedure: as §1, §3

MCAO mice = experiment: brain edema volume by T2-weighted MRI in MCAO mice; type: in vivo, C57BL/6 mice; details: SYS18 30 mg/kg twice a day, about 48 h after MCAO, model 36.64% ± 2.69%, p < 0.0001
Source text: C57BL/6 mice were randomly assigned to treatment groups by body weight. Operator blind to treatment status of animals. After the mice were anesthetized, a midline cervical incision was made. The left common carotid artery and external carotid artery were isolated and ligated. Arterial clamps were placed at the preparation line and distal end of the internal carotid artery. An incision was made at the bifurcation of the common carotid artery. 4–0 nylon line was inserted to a depth of 17–20 mm. The nylon line entered the internal carotid artery; then, it entered the skull to the anterior cerebral artery and blocked all blood flow sources in the middle cerebral artery. After keeping ischemic for 1 h, the animals were re‐anesthetized and then pulled out the nylon line for about 1 cm to achieve reperfusion for up to 48 h. The wound was disinfected with iodophor, and the skin was sutured. Put them on the electric blanket to maintain the body temperature after the completion of surgery; then, they were returned to cages upon recovery. For the sham group, except that no nylon line is inserted, other steps are the same as above. Sham group and model group were given 20% polyoxyethylene castor oil. Subsequently, the animals were sacrificed, and the serum and brains were collected for a series of subsequent analyses and studies.
Serial brain images were acquired approximately 48 h after MCAO. […]

claudin‐5 = experiment: immunofluorescence of claudin-5 in brain of MCAO rats; type: in vivo, Sprague–Dawley rats; details: high-dose SYS18 (15 mg/kg)
Procedure: as §1, §2

MDA = experiment: serum MDA in MCAO rats (kit); type: in vivo, Sprague–Dawley rats; details: 15 mg/kg (high dose), 48 h, p < 0.05
Procedure: as §1, §4

MCAO rats = experiment: brain water content (dry/wet weight) in MCAO rats; type: in vivo, Sprague–Dawley rats; details: 48 h reperfusion, model 83.18% ± 0.71%
Procedure: as §1
The brain water content was evaluated by measuring difference between the dry and wet weights of brains. Briefly, after rats were sacrificed after 48 h of reperfusion, the brains were measured immediately to obtain the wet weights. Then, the brains were drying in a constant temperature oven at 100°C for 24 h, followed by measurements to obtain the dry weights. Brain water content was calculated according to the following formula, brain water content = 100% × (wet weight − dry weight)/wet weight.

COc1ccc(-c2nc(-c3ccccc3O)n(-c3ccc(S(N)(=O)=O)cc3)n2)c(O)c1 [SYS18, 4‐(3‐(2‐hydroxy‐4‐methoxyphenyl)‐5‐(2‐hydroxyphenyl)‐1H‐1,2,4‐triazol‐1‐yl) benzenesulfonamide]
fluorescent intensity of MMP-9 vs model group (MMP‐9): decreased
Cmax ([1]; SD, rat, brain, ip, 15 mg/kg): 464 ng/g
MRT ([1]; SD, rat, brain, ip, 15 mg/kg): 7.15 h
k el ([1]; SD, rat, brain, ip, 15 mg/kg): 3.75e-05 s⁻¹
Kp ([1]; SD, rat, ip, 15 mg/kg, B/P (ratio of total drug concentration in brain to plasma), rats, 15 mg/kg i.p., at 1–2 h): > 0.2
Kp ([1]; SD, rat, ip, 15 mg/kg, B/P (ratio of total drug concentration in brain to plasma), rats, 15 mg/kg i.p., at 4–6 h): > 0.4
Kp ([1]; SD, rat, ip, 15 mg/kg, cerebral‐blood ratio of area under the curve (AUC0‐t), rats, 15 mg/kg i.p.): > 0.4
Tmax ([1]; SD, rat, in vivo, ip, 15 mg/kg): 2 h
half-life ([1]; SD, rat, in vivo, ip, 15 mg/kg): 308 min
CL/F ([1]; SD, rat, plasma, ip, 15 mg/kg): 16.7 mL/min/kg
Cmax ([1]; SD, rat, plasma, ip, 15 mg/kg): 1850 ng/mL
MRT ([1]; SD, rat, plasma, ip, 15 mg/kg): 3.87 h
Tmax ([1]; SD, rat, plasma, ip, 15 mg/kg): 1 h
Vd/F ([1]; SD, rat, plasma, ip, 15 mg/kg): 3 L/kg
half-life ([1]; SD, rat, plasma, ip, 15 mg/kg): 190 min
k el ([1]; SD, rat, plasma, ip, 15 mg/kg): 6.06e-05 s⁻¹
AUC ([1]; SD, rat, plasma, ip, 15 mg/kg, AUC0‐inf_obs, blood, rats, 15 mg/kg i.p.): 8520 ng·h/mL
AUC ([1]; SD, rat, plasma, ip, 15 mg/kg, AUC0‐t, blood, rats, 15 mg/kg i.p.): 8440 ng·h/mL
AUC ([1]; SD, rat, plasma, ip, 15 mg/kg, area under the curve (AUC0‐t), blood, rats): 8440 ng·h/mL
AUMC0‐inf_obs ([1]; blood, rats, 15 mg/kg i.p.): 32940.745 ng/mg × h^2
Tlag ([1]; blood, rats, 15 mg/kg i.p.): 0 h
AUC0‐inf_obs ([1]; brain, rats, 15 mg/kg i.p.): 3700.110 ng·h/mg
AUC0‐t ([1]; brain, rats, 15 mg/kg i.p.): 3504.387 ng·h/mg
AUMC0‐inf_obs ([1]; brain, rats, 15 mg/kg i.p.): 26458.752 ng/mg × h^2
Tlag ([1]; brain, rats, 15 mg/kg i.p.): 0 h
area under the curve (AUC0‐t) ([1]; brain, rats, i.p.): 3500 ng·h/mg
syndecan-1 in brain tissue vs model group (syndecan‐1): significantly increased
TNF-α in serum vs model group (TNF‐α): significantly decreased
HS in serum vs model group (HS): decreased
brain edema volume (T2-MRI) (MCAO mice): 11.01% ± 5.32%
fluorescent intensity of claudin-5 vs model group (claudin‐5): fluorescent intensity increased
MDA levels in serum vs model group (MDA): reduced MDA levels in serum significantly
brain water content (MCAO rats; 7.5 mg/kg (low dose), p > 0.05): 81.98% ± 1.18%
brain water content (MCAO rats; 15 mg/kg (SYS18 high dose; edaravone)): 80.62% ± 1.73%
